# Tests used:
# [1] = molecular target: T1, human melanocortin-4 receptor (MC-4R) (Homo sapiens, UniProt P32245); assay: Membrane binding assay: competition with fluorescence labeled NDP-alpha-MSH, fluorescence polarization; conditions: HEK293 cell membrane preparations expressing human MC-4R, read-out: hMC-4R binding assay IC50
# T1 construct: expressed in transfected cells; host or cells: HEK293
# [2] = molecular target: T1, human melanocortin-4 receptor (MC-4R); assay: Functional assay: agonistic activity, cAMP production in membrane preparations compared with NDP-alpha-MSH, fluorescence polarization; type: biochemical; conditions: for Emax: cAMP produced compared to stimulation with NDP-alpha-MSH, read-out: % activation functional assay; for EC50: cAMP production, membrane preparations from HEK293 cells expressing human MC-4R, read-out: hMC-4R functional assay EC50
# T1 sequence (P32245 whole entry): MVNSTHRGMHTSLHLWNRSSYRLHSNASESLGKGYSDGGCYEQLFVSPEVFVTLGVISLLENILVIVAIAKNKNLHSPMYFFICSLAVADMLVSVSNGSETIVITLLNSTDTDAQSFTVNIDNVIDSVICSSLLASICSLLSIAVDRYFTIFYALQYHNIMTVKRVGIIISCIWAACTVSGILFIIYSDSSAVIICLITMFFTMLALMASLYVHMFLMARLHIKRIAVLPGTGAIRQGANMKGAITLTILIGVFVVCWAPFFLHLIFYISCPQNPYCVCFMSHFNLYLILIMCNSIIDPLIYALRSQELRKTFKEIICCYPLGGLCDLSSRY
SMILES,IC50 [1] [µM],Emax [2] [%],EC50 [2] [µM]
Cc1ccc(C2CCN(C(=O)[C@@H](Cc3ccc(Cl)cc3Cl)NC(=O)N3CCCC3)CC2)c(NCCN2CCCC2)n1 [Example 1],≤ 0.1,0,–
Cc1ccc(C2CCN(C(=O)[C@@H](Cc3ccc(Cl)cc3Cl)NC(=O)N3CCCC3)CC2)c(N(C)CCN2CCCC2)n1 [Example 2],≤ 0.1,0,–
Cc1cnc(N(C)CCN2CCCC2)c(C2CCN(C(=O)[C@@H](Cc3ccc(Cl)cc3Cl)NC(=O)N3CCCC3)CC2)c1 [Example 3],0.1 to 1,0,–
Cc1ccc(C2CCN(C(=O)[C@@H](Cc3ccc(Cl)cc3Cl)NC(=O)N3CCCC3)CC2)c(N2CCN(C)CC2)n1 [Example 4],≤ 0.1,0,–
O=C(N[C@H](Cc1ccc(Cl)cc1Cl)C(=O)N1CCC(c2cccnc2OCCN2CCCC2)CC1)N1CCCC1 [Example 5],≤ 0.1,0,–
Cc1ccc(C2CCN(C(=O)[C@@H](Cc3ccc(Cl)cc3Cl)NC(=O)N3CCCC3)CC2)c(OCCN2CCCC2)n1 [Example 6],≤ 0.1,0,–
CC[C@@H](CN1CCCC1)Oc1ncccc1C1CCN(C(=O)[C@@H](Cc2ccc(Cl)cc2Cl)NC(=O)N2CCCC2)CC1 [Example 7],≤ 0.1,0,–
CC[C@@H](CN1CCCC1)Oc1ncc(C)cc1C1CCN(C(=O)[C@@H](Cc2ccc(Cl)cc2Cl)NC(=O)N2CCCC2)CC1 [Example 9],≤ 0.1,0,–
O=C(N[C@H](Cc1ccc(Cl)cc1Cl)C(=O)N1CCC(c2cccnc2O[C@H]2CN3CCC2CC3)CC1)N1CCCC1 [Example 10],0.1 to 1,0,–
CC[C@@H](CN1CCCC1)Oc1cnccc1C1CCN(C(=O)[C@@H](Cc2ccc(Cl)cc2Cl)NC(=O)N2CCCC2)CC1 [Example 11],≤ 0.1,0,–
CC[C@@H](CN1CCCC1)Oc1ccncc1C1CCN(C(=O)[C@@H](Cc2ccc(Cl)cc2Cl)NC(=O)N2CCCC2)CC1 [Example 12],≤ 0.1,0,–
CC[C@H](COc1ccncc1C1CCN(C(=O)[C@@H](Cc2ccc(Cl)cc2Cl)NC(=O)N2CCCC2)CC1)N(C)C [Example 13],0.1 to 1,0,–
O=C(N[C@H](Cc1ccc(Cl)cc1Cl)C(=O)N1CCC(c2ncccc2OCCN2CCCC2)CC1)N1CCCC1 [Example 14],0.1 to 1,0,–
C[C@@H](CN(C)C)Oc1cccnc1C1CCN(C(=O)[C@@H](Cc2ccc(Cl)cc2Cl)NC(=O)N2CCCC2)CC1 [Example 15],≤ 0.1,0,–
C[C@@H](CN1CCCC1)Oc1cccnc1C1CCN(C(=O)[C@@H](Cc2ccc(Cl)cc2Cl)NC(=O)N2CCCC2)CC1 [Example 16],≤ 0.1,0,–
CC[C@@H](CN1CCCC1)Oc1cccnc1C1CCN(C(=O)[C@@H](Cc2ccc(Cl)cc2Cl)NC(=O)N2CCCC2)CC1 [Example 17],≤ 0.1,0,–
CC[C@H](COc1cccnc1C1CCN(C(=O)[C@@H](Cc2ccc(Cl)cc2Cl)NC(=O)N2CCCC2)CC1)N(C)C [Example 18],≤ 0.1,0,–
CN(C)C(C)(C)COc1cccnc1C1CCN(C(=O)[C@@H](Cc2ccc(Cl)cc2Cl)NC(=O)N2CCCC2)CC1 [Example 20],≤ 0.1,0,–
CN1CCC[C@H](Oc2cccnc2C2CCN(C(=O)[C@@H](Cc3ccc(Cl)cc3Cl)NC(=O)N3CCCC3)CC2)C1 [Example 21],≤ 0.1,0,–
C[C@H](Oc1cccnc1C1CCN(C(=O)[C@@H](Cc2ccc(Cl)cc2Cl)NC(=O)N2CCCC2)CC1)[C@@H](C)N(C)C [Example 22],≤ 0.1,0,–
CN1CCN(c2cccnc2C2CCN(C(=O)[C@@H](Cc3ccc(Cl)cc3Cl)NC(=O)N3CCCC3)CC2)CC1 [Example 23],0.1 to 1,0,–
CC[C@H](COc1cc(C)cnc1C1CCN(C(=O)[C@@H](Cc2ccc(Cl)cc2Cl)NC(=O)N2CCCC2)CC1)N1CCCC1 [Example 24],≤ 0.1,0,–
C[C@H](COc1cccnc1C1CCN(C(=O)[C@@H](Cc2ccc(Cl)cc2Cl)NC(=O)N2CCCC2)CC1)N(C)C [Example 25],≤ 0.1,0,–
O=C(N[C@H](Cc1ccc(Cl)cc1Cl)C(=O)N1CCC(c2ncccc2O[C@H]2CN3CCC2CC3)CC1)N1CCCC1 [Example 26],0.1 to 1,0,–

SMILES,IC50 [1] [µM],Emax [2] [%],EC50 [2] [µM]
CC[C@H](COc1cc(C)cnc1C1CCN(C(=O)[C@@H](Cc2ccc(Cl)cc2Cl)NC(=O)N2CCCC2)CC1)N(C)C [Example 27],≤ 0.1,0,–
CN1CCN(Cc2cccnc2C2CCN(C(=O)[C@@H](Cc3ccc(Cl)cc3Cl)NC(=O)N3CCCC3)CC2)CC1 [Example 28],0.1 to 1,0,–
O=C(N[C@H](Cc1ccc(Cl)cc1Cl)C(=O)N1CCC(c2ncccc2OC2CN3CCC2CC3)CC1)N1CCCC1 (stereo partly shown) [Example 29],0.1 to 1,0,–
CC(C)[C@H](COc1cccnc1C1CCN(C(=O)[C@@H](Cc2ccc(Cl)cc2Cl)NC(=O)N2CCCC2)CC1)N(C)C [Example 30],≤ 0.1,-8,–
CC[C@@H](COc1cccnc1C1CCN(C(=O)[C@@H](Cc2ccc(Cl)cc2Cl)NC(=O)N2CCCC2)CC1)N1CCCC1 [Example 31],≤ 0.1,-3,–
CC[C@@H](CN(C)C)Oc1cccnc1C1CCN(C(=O)[C@@H](Cc2ccc(Cl)cc2Cl)NC(=O)N2CCCC2)CC1 [Example 32],≤ 0.1,36,> 1
CC[C@@H](COc1cccnc1C1CCN(C(=O)[C@@H](Cc2ccc(Cl)cc2Cl)NC(=O)N2CCCC2)CC1)N(C)C [Example 33],0.1 to 1,0,–
CC[C@H](CN(C)C)Oc1cccnc1C1CCN(C(=O)[C@@H](Cc2ccc(Cl)cc2Cl)NC(=O)N2CCCC2)CC1 [Example 34],> 1,-3,–
CC[C@H](COc1c(C)ccnc1C1CCN(C(=O)[C@@H](Cc2ccc(Cl)cc2Cl)NC(=O)N2CCCC2)CC1)N(C)C [Example 35],0.1 to 1,7,–
CC[C@H](COc1cc(OC)cnc1C1CCN(C(=O)[C@@H](Cc2ccc(Cl)cc2Cl)NC(=O)N2CCCC2)CC1)N(C)C [Example 36],≤ 0.1,8,–
CN1CCN(CCOc2cccnc2C2CCN(C(=O)[C@@H](Cc3ccc(Cl)cc3Cl)NC(=O)N3CCCC3)CC2)CC1 [Example 37],0.1 to 1,-2,–
CN1CCC(Oc2cccnc2C2CCN(C(=O)[C@@H](Cc3ccc(Cl)cc3Cl)NC(=O)N3CCCC3)CC2)CC1 [Example 38],0.1 to 1,-5,–
CN1CCN(Cc2cc(Cl)cnc2C2CCN(C(=O)[C@@H](Cc3ccc(Cl)cc3Cl)NC(=O)N3CCCC3)CC2)CC1 [Example 39],≤ 0.1,-13,–
CC[C@H](COc1cc(Cl)cnc1C1CCN(C(=O)[C@@H](Cc2ccc(Cl)cc2Cl)NC(=O)N2CCCC2)CC1)N1CCCC1 [Example 40],≤ 0.1,-11,–
CN1CC(Oc2cccnc2C2CCN(C(=O)[C@@H](Cc3ccc(Cl)cc3Cl)NC(=O)N3CCCC3)CC2)C1 [Example 41],0.1 to 1,-1,–
CN1CC[C@H](Oc2cccnc2C2CCN(C(=O)[C@@H](Cc3ccc(Cl)cc3Cl)NC(=O)N3CCCC3)CC2)C1 [Example 42],0.1 to 1,-1,–
CN1CC[C@@H](Oc2cccnc2C2CCN(C(=O)[C@@H](Cc3ccc(Cl)cc3Cl)NC(=O)N3CCCC3)CC2)C1 [Example 43],0.1 to 1,0,–
CN1CCC[C@H]1COc1cccnc1C1CCN(C(=O)[C@@H](Cc2ccc(Cl)cc2Cl)NC(=O)N2CCCC2)CC1 [Example 44],0.1 to 1,-4,–
CN1CCC[C@@H]1COc1cccnc1C1CCN(C(=O)[C@@H](Cc2ccc(Cl)cc2Cl)NC(=O)N2CCCC2)CC1 [Example 45],≤ 0.1,-27,0.1 to 1
COC[C@H](CN(C)C)Oc1cccnc1C1CCN(C(=O)[C@@H](Cc2ccc(Cl)cc2Cl)NC(=O)N2CCCC2)CC1 [Example 46],> 1,-13,–
COC[C@@H](CN(C)C)Oc1cccnc1C1CCN(C(=O)[C@@H](Cc2ccc(Cl)cc2Cl)NC(=O)N2CCCC2)CC1 [Example 47],≤ 0.1,-36,0.1 to 1
CN1CCOC[C@H](Oc2cccnc2C2CCN(C(=O)[C@@H](Cc3ccc(Cl)cc3Cl)NC(=O)N3CCCC3)CC2)C1 [Example 48],≤ 0.1,0,–
CN1CCO[C@H](COc2cccnc2C2CCN(C(=O)[C@@H](Cc3ccc(Cl)cc3Cl)NC(=O)N3CCCC3)CC2)C1 [Example 49],0.1 to 1,-3,–

# Source: patent publication US20100249093A1, “Substituted Heteroarylpiperidine Derivatives As Melanocortin-4 Receptor Modulators” (SANTHERA PHARMACEUTICALS (SCHWEIZ) AG, priority 2007, published 2010)
